# From publication PMC8509676, “Residual Helicity at the Active Site of the Histidine Phosphocarrier, HPr, Modulates Binding Affinity to Its Natural Partners” (International Journal of Molecular Sciences, 2021)
# Experiments:
# [1] = molecular target: EIN^sc (N-terminal domain of EI^sc) (Streptomyces coelicolor, UniProt Q9KZP1); assay: biochemical; type: binding
# Procedure: (§1) The experimental set-up and data processing of ITC experiments has been described previously. Rsd^ec or EIN^sc (at 10–20 µM) were injected into the cell, and the peptides in the syringe (100–200 µM) in 50 mM of Tris buffer, pH 7.0. The temperature for all the experiments was 25 °C. Typically, each calorimetric titration consisted of performing 19 injections with 2 μL volume, with a time spacing of 150 s, while stirring at 750 rpm in an Auto-iTC200 high-sensitivity microcalorimeter (MicroCal, Malvern-Panalytical, Malvern, UK). The results were analysed by applying a model that considered a single binding site (assuming a 1:1 stoichiometry) for the peptide/EIN^sc or peptide/Rsd^ec interaction using a nonlinear least-squares regression analysis in Origin 7.0 (OriginLab, Northampton, MA, USA) with user-defined fitting routines.
# Rsd^ec [2] = molecular target: T1, Rsd^ec (Escherichia coli, UniProt P0AFX4); assay: Isothermal titration calorimetry (ITC), peptide/Rsd^ec binding; settings: ITC, 25 °C, 50 mM Tris pH 7.0
# T1 construct: His-tag; made in house; host or cells: E. coli C41
# T1 sequence (P0AFX4 whole entry): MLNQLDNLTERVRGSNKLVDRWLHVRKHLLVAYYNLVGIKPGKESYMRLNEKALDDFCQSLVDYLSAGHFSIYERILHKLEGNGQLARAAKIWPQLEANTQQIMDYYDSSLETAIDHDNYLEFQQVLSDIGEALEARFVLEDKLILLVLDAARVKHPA
# Procedure: as §1
# EIN^sc = EIN^sc (Streptomyces coelicolor, UniProt Q9KZP1); assay: biochemical; type: binding
# Sequence of EIN^sc (Q9KZP1 1-230): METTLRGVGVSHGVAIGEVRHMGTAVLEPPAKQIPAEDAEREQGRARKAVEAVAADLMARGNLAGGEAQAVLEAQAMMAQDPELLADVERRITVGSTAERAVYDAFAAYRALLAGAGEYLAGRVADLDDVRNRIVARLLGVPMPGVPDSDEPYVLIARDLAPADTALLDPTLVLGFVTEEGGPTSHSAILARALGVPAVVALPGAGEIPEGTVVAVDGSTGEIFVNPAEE
# Procedure: (§2) Spectra were collected at 25 °C on a Cary spectrofluorometer (Agilent, Madrid, Spain), with a Peltier temperature controller. The samples were prepared the day before and left overnight at 5 °C. Before measurements, the samples were incubated for 1 h at 25 °C. A quartz cell with a 1 cm path length (Hellma, Kruibeke, Belgium) was used. In all the experiments, the slit widths were equal to 5 nm for both the excitation and emission lights. Protein samples were excited at either 280 or 295 nm. The experiments were performed between 300 and 400 nm. The signal was acquired for 1 s, and the increment of wavelength was set to 1 nm. Appropriate blank corrections were made in all spectra. For the binding experiments, 3 µM of either protein (Rsd^ec or EIN^sc) and 15 µM of the corresponding peptide were mixed. The experiments in aqueous solution were acquired in Tris buffer (50 mM, pH 7.0).
# (§3) For the titration between either of the two proteins (Rsd^ec or EIN^sc) and the corresponding peptide, increasing amounts of the latter, in a concentration range of 0 to 30 µM, were added to a solution with a fixed concentration of each protein (3 µM). The experimental set-up was identical to that described above, including preparation of the samples the day before and their storage overnight at 5 °C. Before measurements, the samples were incubated for 1 h at 25 °C. The fluorescence of a blank solution containing only the corresponding peptide was subtracted for each data point. […] The Kd was determined by following the fluorescence at selected wavelengths and fitting experimental data to Equation (1). […] At all used concentrations, the fluorescence was corrected by the inner-filter effects.
# Rsd^ec [3] = molecular target: T1, Rsd^ec; assay: Fluorescence titration, peptide/Rsd^ec binding
# Procedure: as §2, §3
# [4] = tested on: Staphylococcus aureus CECT59; type: cell-based; settings: S. aureus CECT59, two-fold broth microdilution (CLSI), MH broth, 24 h, 37 °C; triplicate (sd = 0); highest concentration tested 400 µM
# Procedure: The CECT59 strain of the Gram-positive bacteria Staphylococcus aureus from the Spanish Type Culture Collection (Colección Española de Cultivos Tipo, CECT, Universitat de Valencia, Spain) was used for determining its sensitivity to the HPr peptides studied in this work. The MIC for each peptide was determined by the two-fold broth microdilution method according to the Clinical and Laboratory Standards Institute (CLSI) guidelines, with some modifications as previously described. For this testing procedure, a bacteria colony previously grown in MH agar plates was isolated and incubated in MH broth at 37 °C overnight to prepare the bacteria inoculum to be used in each assay. Then, the bacteria suspensions were adjusted to a 100× dilution of an 0.5 McFarland turbidity standard in MH broth and incubated with different concentrations of each peptide in round-bottom 96-well polystyrene plates (Deltalab S.L., Rubí, Spain) (50 μL/well) for 24 h at 37 °C. The peptide concentrations employed comprised two-fold dilutions starting at either 120, 160, or 400 µM, depending on the experiment. […] All assays were performed in triplicate.
# [5] = TFE titration followed by far-UV CD (disordered-helical two-state equilibrium); type: physicochemical
# Procedure: For experiments in the presence of TFE, the same set of experimental parameters was used. Cosolvent concentrations were indicated in percentage of volume (%). […] The peptide concentration for these experiments was 20 µM.
# [6] = aqueous solution; cited from earlier work
# Text: Streptomyces is an actinomycete, Gram-positive organism with high content of G + C base pairs in its genome. We have carried out an extensive description of the structures and conformational stabilities of HPr^sc (O50515) and EI (EI^sc) (Q9KZP1) to understand their binding in the PTS cascade. We have also characterized the interaction of EI^sc with wild-type HPr^sc and that of the phosphorylated species, as well as that of the N-terminal domain of EI^sc (EIN^sc) with intact HPr^sc. We have also shown that the peptide comprising residues Ala9-Gly3 ...
# [7] = TFE titration by far-UV CD, 20 µM peptide, two-state fit, fitting errors
# Sequence of EIN^sc (N-terminal domain of EI^sc) (Q9KZP1 1-230): as above
substance,measurement,setting,value
Ac-GWAEGLHARPASIFVRAATATG-NH2 [Wild-type],Kd,[1],2.3 ± 0.4 µM
same,"ΔH, EIN^sc","[1]; ITC, 25 °C, 50 mM Tris pH 7.0",-0.8 ± 0.4 kcal/mol
same,"ΔH, Rsd^ec",Rsd^ec [2],1.3 ± 0.4 kcal/mol
same,Kd,EIN^sc,10 µM
same,Kd,Rsd^ec [3],5 µM
same,MIC,[4],40 µM
same,[TFE]1/2,[5]; [7],23.2 ± 0.5 % (v/v)
same,m,[5]; [7],166 ± 23 cal/mol (% (v/v))
same,percentage of helical population (in parentheses),[5]; from ∆G^water assuming a two-state conformational equilibrium,0.10%
same,∆G^water,"[5]; product of m- and [TFE]1/2 values, error propagation",3.8 ± 0.5 kcal/mol
same,helical population,[6],about 7%
